From PubChem BioAssay (NCI)
Where “and” joins values, the source holds several entries; their conditions need not be identical. Identical values can stand only once.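 Protocol summary: plate cells (96-well), add compound at 5 concentrations, incubate 48 h, interpolate endpoints linearly. At the GI50, growth is halved. TGI: concentration producing complete growth inhibition.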

How the values were obtained:
Test in all cases: NCI-60 cell line screen, 48 h
[1] = system: K-562 leukemia
[2] = system: EKVX NSCLC
[3] = system: OVCAR-3 ovarian
[4] = system: UO-31 renal
[5] = system: NCI-H522 lung
[6] = system: NCI-H460 lung
[7] = system: MOLT-4 leukemia
[8] = system: SN12C renal
[9] = system: UACC-62 melanoma
[10] = system: HCT-15 colon

| Structure (SMILES) | GI50 [1] | TGI [1] | GI50 [2] | TGI [2] | GI50 [3] | TGI [3] | GI50 [4] | TGI [4] | GI50 [5] | TGI [5] | GI50 [6] | TGI [6] | GI50 [7] | TGI [7] | GI50 [8] | TGI [8] | GI50 [9] | TGI [9] | GI50 [10] | TGI [10] |
| --- | --- | --- | --- | --- | --- | --- | --- | --- | --- | --- | --- | --- | --- | --- | --- | --- | --- | --- | --- | --- |
| Cn1c(-c2nonc2N)nc2cnccc21 | > 25 µM | > 25 µM | 16.5 µM | > 25 µM | > 25 µM | > 25 µM | > 17.8 µM | > 25 µM | > 25 µM | > 25 µM | > 25 µM | > 25 µM | > 25 µM | > 25 µM | > 25 µM | > 25 µM | > 25 µM | > 25 µM | > 25 µM | > 25 µM |
| O=c1c(Cl)c(Cl)cnn1-c1ccccc1 | 2.13 µM | 5.14 µM and 4.67 µM | 5.44 µM and 15.4 µM | 10.5 µM and 33.4 µM |  | 4.22 µM and 3.94 µM |  | 8.91 µM and 7.47 µM |  | 2.82 µM and 3.79 µM |  | 10.3 µM and 8.61 µM |  | 7.19 µM and 4.14 µM |  | 8.88 µM and 4.01 µM |  | 3.34 µM and 5.36 µM |  | 3.51 µM and 5.38 µM |
| CC1(C)N=C(N)N=C(N)N1c1ccc(CCCCc2ccc(S(=O)(=O)F)cc2Cl)c(Cl)c1 |  | 64.3 µM |  | 161 µM |  | 87 µM |  | 224 µM |  | 31.4 µM |  | 80.8 µM |  | 10.6 µM |  | 90.3 µM |  | 46.9 µM |  | 193 µM |
| COc1ccccc1NC(=O)c1ccc(/C=C/C(=O)c2nccn2C)cc1 | 0.588 µM | 11.6 µM | 0.591 µM | 1.89 µM | 0.459 µM | 0.988 µM | 0.357 µM | 0.714 µM | 0.584 µM | 1.52 µM | 0.572 µM | 1.52 µM | 0.711 µM | 2.22 µM | 0.592 µM | 1.56 µM | 0.472 µM | 0.986 µM | 0.363 µM | 0.843 µM |
| N#Cc1cnn2ccn(C3OC(COC(=O)c4ccccc4)C(OC(=O)c4ccccc4)C3OC(=O)c3ccccc3)c12 (configuration not stated) |  | > 21.5 µM |  | > 21.5 µM |  | > 21.5 µM |  | > 21.5 µM |  | > 21.5 µM |  | > 21.5 µM |  | > 21.5 µM |  | > 21.5 µM |  | > 21.5 µM |  | > 21.5 µM |
| CC[n+]1ccc2c(c1)C(=O)c1nccc3c1c-2nc1ccccc13 | 3 µM | 22.2 µM | 3.53 µM | 8.92 µM | 0.783 µM | 2.92 µM | 0.948 µM | 8.42 µM | 0.538 µM | 1.45 µM | 0.12 µM | 2.65 µM | 1.27 µM | 7.31 µM | 0.142 µM | 0.66 µM | 0.763 µM | 2.52 µM | 2.86 µM | > 33.3 µM |
| Cc1c(C(=O)/C=C/c2cccc3ccccc23)[n+](=O)c2ccccc2n1[O-] |  | 36.5 µM |  | 27.3 µM |  | 22.7 µM |  | 31.2 µM |  | 19.8 µM |  | 32.5 µM |  | 35.4 µM |  | 29.8 µM |  | 23.9 µM |  | 27 µM |
| COc1ccc(-n2cc(-c3ccc(OC)c(OC)c3)[nH]c2=S)cc1Cl | > 100 µM | > 100 µM | 41.5 µM | > 100 µM | > 100 µM | > 100 µM | > 100 µM | > 100 µM | > 100 µM | > 100 µM | > 100 µM | > 100 µM | 77.4 µM | > 100 µM | > 100 µM | > 100 µM | > 100 µM | > 100 µM | > 100 µM | > 100 µM |
| OCCNCO |  | > 100 µM |  | > 100 µM |  | > 100 µM |  | > 100 µM |  | > 100 µM |  | > 100 µM |  | > 100 µM |  | > 100 µM |  | > 100 µM |  | > 100 µM |
| CNC(=O)c1cc(Oc2ccc3c(c2)sc2nc(-c4ccc(N)cc4)cn23)ccn1 | 0.0911 µM | > 100 µM | 0.458 µM | > 100 µM | 0.198 µM | 0.67 µM | 0.467 µM | > 100 µM | 0.165 µM | 0.573 µM | 0.289 µM | 20.6 µM | 0.26 µM | > 60.8 µM | 0.759 µM | > 100 µM | 0.0982 µM | > 100 µM | 0.122 µM | > 100 µM |
| C1CN2N3CCCC23C1 (configuration not stated) |  | > 100 µM |  | > 100 µM |  | > 100 µM |  | > 100 µM |  | > 100 µM |  | > 100 µM |  | > 100 µM |  | > 100 µM |  | > 100 µM |  | > 100 µM |
| O=C1CC[C@H]2CNC(=O)C[C@H]2C1 |  | > 100 µM |  | > 100 µM |  | > 100 µM |  | > 100 µM |  | > 100 µM |  | > 100 µM |  | > 100 µM |  | > 100 µM |  | > 100 µM |  | > 100 µM |
